In patent publication US20180021323A1, “FLIP - A SELECTIVE MOLECULAR TARGET OF SENESCENT CELLS” (BIOVENTURES, LLC, priority 2015, published 2018):

Legend:
normal (NC) WI38 cells = assay: Cell viability of normal (NC) WI38 cells, 72 h treatment; format: cell-based; details: for LD50 (NC): normal (NC) WI38 cells, viable cells determined 72 h after treatment
Description: The expression of FLIP in normal (NC) and IR-induced senescent (SC) WI38 cells was determined by Western blot 24 h after they were treated with vehicle (VEH) or Drox (10 μM). […] IR-induced senescent (SC) WI38 cells were treated with vehicle (VEH) or Drox (10 μM) for 6 h and the expression of FLIP mRNA in these cells was determined by qPCR. […] Viable cells were determined 72 h after normal (NC) and IR-induced senescent (SC) WI38 cells were treated with vehicle (VEH) or increasing concentrations of Drox. The data are presented as a percentage of control cells treated with VEH. […] Normal (NC) and IR-induced senescent (SC) WI38 cells were treated with vehicle (VEH), Drox (10 μM), PL (10 μM), and EF-24 (10 μM) for 24 h and the expression of FLIP in these cells was determined by Western blots. […] Viable cells were determined 72 h after normal (NC) and IR-induced senescent (SC) WI38 cells were treated with vehicle (VEH) or increasing concentrations of Drox, PL, and EF-24. LD50 values for these molecules against NC and SC were calculated and presented.

[1] = tested on: IR-induced senescent (SC) WI38 cells; assay: Cell viability of IR-induced senescent (SC) WI38 cells, 72 h treatment; format: cell-based, human; details: for LD50 (SC): IR-induced senescent (SC) WI38 cells, viable cells determined 72 h after treatment; for killing of IR-induced senescent (SC) WI38 cells (viable cells, % of vehicle control): increasing concentrations, 72 h
Description: (§1) The expression of FLIP in normal (NC) and IR-induced senescent (SC) WI38 cells was determined by Western blot 24 h after they were treated with vehicle (VEH) or Drox (10 μM). Treatment with droxinostat (Drox) down-regulates the expression of FLIP mRNA in IR-induced senescent (SC) WI38 cells (FIG. 3B). IR-induced senescent (SC) WI38 cells were treated with vehicle (VEH) or Drox (10 μM) for 6 h and the expression of FLIP mRNA in these cells was determined by qPCR. […] Viable cells were determined 72 h after normal (NC) and IR-induced senescent (SC) WI38 cells were treated with vehicle (VEH) or increasing concentrations of Drox. The data are presented as a percentage of control cells treated with VEH. Treatment with droxinostat (Drox), piperlongumine (PL) and EF-24 down-regulates the expression of FLIP in IR-induced senescent (SC) WI38 cells (FIG. 3E). Normal (NC) and IR-induced senescent (SC) WI38 cells were treated with vehicle (VEH), Drox (10 μM), PL (10 μM), and EF-24 (10 μM) for 24 h and the expression of FLIP in these cells was determined by Western blots. […] Viable cells were determined 72 h after normal (NC) and IR-induced senescent (SC) WI38 cells were treated with vehicle (VEH) or increasing concentrations of Drox, PL, and EF-24. LD50 values for these molecules against NC and SC were calculated and presented.

FLIP = FLIP protein expression by Western blot in IR-induced senescent WI38 cells; format: cell-based, human; details: 10 μM, 24 h
Excerpt: Treatment with doxycycoline (DOX) dose-dependently induces FLIP-shRNA expression in WI38 cell line after the cells were stably transfected with a plasmid containing FLIP-shRNA and red fluorescent protein (RFP) genes (FIG. 2A). Induction of FLIP-shRNA by doxycycoline down-regulates FLIP expression in IR-induced senescent WI38 cells stably transfected with FLIP-shRNA but not in vector transfected cells (FIG. 2B).
as §1

FLIP mRNA = FLIP mRNA expression by qPCR in IR-induced senescent WI38 cells; format: cell-based, human; details: 10 μM, 6 h
Description: as §1

| SMILES | LD50 (NC) (normal (NC) WI38 cells) [µM] | LD50 (SC) [1] [µM] | killing of IR-induced senescent (SC) WI38 cells (viable cells, % of vehicle control) [1] | expression of FLIP (Western blot, FIG. 3E) (FLIP) | effect on normal (NC) WI38 cells (viable cells, % of vehicle control) (normal (NC) WI38 cells; increasing concentrations, 72 h) | expression of FLIP (Western blot, FIG. 3A) (FLIP) | expression of FLIP mRNA (qPCR, FIG. 3B) (FLIP mRNA) |
| --- | --- | --- | --- | --- | --- | --- | --- |
| O=C1/C(=C/c2ccccc2F)CNC/C1=C\c1ccccc1F [EF-24] | 6.08 | 1.05 | selectively kill | down-regulates | – | – | – |
| COc1cc(/C=C/C(=O)N2CCC=CC2=O)cc(OC)c1OC [Piperlongumine, piperlongumine] | 24.25 | 7.05 | selectively kill | down-regulates | – | – | – |
| Cc1cc(Cl)ccc1OCCCC(=O)NO [Droxinostat, 4-(4-chloro-2-methylphenoxy)-N-hydroxybutanamide] | 39.58 | 8.26 | selectively kill | down-regulates | minimal effect | down-regulated | down-regulates |
